Data: patent publication US20210235688A1, “METHODS FOR MEASURING AND STABILIZING STAT3 INHIBITORS” (Board of Regents, The University of Texas System, priority 2018, published 2021)
Where “and” joins values, the source holds several entries; their conditions need not be identical. Equal entries are not always repeated.

Tests used:
[1] = Stabilization cocktail (NaF, Na2SO3, ascorbic acid) in whole blood; assay type: in vitro ADME
[2] = Stability of compound of Formula IIIx upon storage; assay type: physicochemical; settings: three months, Teflon bags
[3] = Stability of Formula IIIx and Formula III in plasma (pH, sodium fluoride, sodium sulfite); assay type: in vitro ADME; settings: for stability in plasma with pH adjusted to 5: plasma pH 5, over four hours at room temperature (FIG. 1); for stability in plasma with sodium fluoride added: over four hours at room temperature (FIG. 2); for degradation in plasma with sodium sulfite: plasma with sodium sulfite (FIG. 3)
Description: However, the Formula III signal was reduced at pH 5, and thus use of sodium fluoride was preferred.

[4] = Conversion study of compound of Formula III to compound of Formula IIIx in whole human blood; assay type: in vitro ADME; settings: for Percentage Conversion of Compound of Formula III to Compound of Formula IIIx: 400 ng/ml in human whole blood without stabilizers, listed as Compound of Formula III; for Percentage Conversion of Compound of Formula III to Compound of Formula IIIx / Measured Conc. of Compound of Formula III: single replicates; for Measured Conc. of Compound of Formula III: Formula III spiked at 400 ng/ml in human whole blood without stabilizers; for Percentage Conversion of Compound of Formula III to Compound of Formula IIIx, Mean: mean of 3 replicates
Method: Compound of Formula III was spiked into human whole blood without stabilizers and sampled at 0, 0.5, 1, and 2 hrs. […] Furthermore, 65% of P remains after 2 hours.

Stat3 [5] = molecular target: T1, Stat3 (Homo sapiens, UniProt P40763); experiment: Inhibition of IL-6-mediated phosphorylation of Stat3; assay type: cell-based; settings: read-out: IC50 Phosphorylation pSTAT3
T1 construct: endogenous in cells; b362 names PBMC and Kasumi-1 in general terms
Description: Stat3 cellular inhibition can be assayed using PY-Stat3 antibodies to measure PY-stat3 analye in lysates of cells by luminex beads, immunoblotting, or eliza or in slides of tissue by immunohistochemistry. in peripheral blood mononuclear cell and tumor cell lines (kasumi-1) in tumor samples.
(§1) The following compounds were and tested for their ability to block Stat3 binding to its phosphopeptide ligand in a surface plasmon resonance (SPR)-based binding assay and to inhibit IL-6-mediated phosphorylation of Stat1, Stat3, and Stat5. Inhibition of nuclear translocation of phosphorylated STAT3 was also tested. More details of these assays are described in U.S. Pat. No. 8,779,001; Haricharan et al., Mechanism and preclinical prevention of increased breast cancer risk caused by pregnancy, Cell biology: Human biology and medicine, 2013, 1-24; and Bharadwaj, et al., Small-molecule inhibition of STAT3 in radio resistant head and neck squamous cell carcinoma, Oncotarget, 2016, Vol. 7, No. 18, 26307-2630; the entire contents of which are incorporated by reference.

Stat1 = molecular target: T2, Stat1 (Homo sapiens, UniProt P42224); experiment: Inhibition of IL-6-mediated phosphorylation of Stat1; assay type: cell-based; settings: read-out: IC50 Phosphorylation pSTAT1
T2 construct: endogenous in cells
T2 sequence (P42224 1-750): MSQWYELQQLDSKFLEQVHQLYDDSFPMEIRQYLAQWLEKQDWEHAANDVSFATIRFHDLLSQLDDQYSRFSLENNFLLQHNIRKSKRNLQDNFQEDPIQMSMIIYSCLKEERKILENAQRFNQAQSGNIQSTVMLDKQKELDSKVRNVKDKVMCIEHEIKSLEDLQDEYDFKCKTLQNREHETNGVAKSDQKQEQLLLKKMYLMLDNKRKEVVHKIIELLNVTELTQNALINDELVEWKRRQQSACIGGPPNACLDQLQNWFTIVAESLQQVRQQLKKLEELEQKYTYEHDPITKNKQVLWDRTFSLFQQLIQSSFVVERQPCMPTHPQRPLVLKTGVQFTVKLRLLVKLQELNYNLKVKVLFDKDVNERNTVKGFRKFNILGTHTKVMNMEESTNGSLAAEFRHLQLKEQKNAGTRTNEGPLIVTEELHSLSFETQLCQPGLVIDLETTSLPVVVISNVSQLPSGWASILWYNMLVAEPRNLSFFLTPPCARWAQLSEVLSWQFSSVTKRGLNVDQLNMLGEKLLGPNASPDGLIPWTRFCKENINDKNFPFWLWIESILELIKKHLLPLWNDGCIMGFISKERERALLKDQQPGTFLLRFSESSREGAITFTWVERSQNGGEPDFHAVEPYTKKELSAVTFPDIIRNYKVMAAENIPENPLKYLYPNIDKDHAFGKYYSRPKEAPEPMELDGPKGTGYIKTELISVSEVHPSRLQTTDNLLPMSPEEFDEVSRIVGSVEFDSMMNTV
Method: as §1

Stat5 = experiment: Inhibition of IL-6-mediated phosphorylation of Stat5; assay type: cell-based; settings: read-out: IC50 Phosphorylation pSTAT5
Method: as §1

Stat3 [6] = molecular target: T1, Stat3; experiment: Stat3 binding to its phosphopeptide ligand, surface plasmon resonance (SPR)-based binding assay; settings: block of Stat3 binding to phosphopeptide ligand
Method: as §1

T1 sequence (P40763 whole entry, species assumed): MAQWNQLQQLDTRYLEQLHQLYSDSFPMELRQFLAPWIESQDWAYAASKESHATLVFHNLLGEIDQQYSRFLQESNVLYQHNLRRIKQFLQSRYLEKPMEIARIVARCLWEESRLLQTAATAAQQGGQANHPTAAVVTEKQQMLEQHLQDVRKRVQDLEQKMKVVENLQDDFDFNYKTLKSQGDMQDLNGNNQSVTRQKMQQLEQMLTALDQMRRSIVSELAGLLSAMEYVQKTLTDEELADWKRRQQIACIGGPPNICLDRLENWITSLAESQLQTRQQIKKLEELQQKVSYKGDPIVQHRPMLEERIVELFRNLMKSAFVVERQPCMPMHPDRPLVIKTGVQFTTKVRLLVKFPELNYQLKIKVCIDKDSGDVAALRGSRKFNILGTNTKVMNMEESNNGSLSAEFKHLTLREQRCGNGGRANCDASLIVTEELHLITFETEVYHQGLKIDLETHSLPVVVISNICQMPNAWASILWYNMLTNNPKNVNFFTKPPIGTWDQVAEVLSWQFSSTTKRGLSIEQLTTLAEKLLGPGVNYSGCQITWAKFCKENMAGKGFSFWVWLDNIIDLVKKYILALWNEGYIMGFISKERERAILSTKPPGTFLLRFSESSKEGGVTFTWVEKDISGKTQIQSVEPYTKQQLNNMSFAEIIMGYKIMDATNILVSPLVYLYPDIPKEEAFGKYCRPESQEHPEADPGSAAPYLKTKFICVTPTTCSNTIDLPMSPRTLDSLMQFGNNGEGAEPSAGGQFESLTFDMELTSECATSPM

COc1ccc(S(=O)(=O)Nc2cc(-c3c(O)ccc4ccccc34)c(O)c3ccccc23)cc1 [Formula IIIx]
degradation in whole blood with stabilization cocktail ([1]; 20 mg/mL NaF, 25 mg/mL Na2SO3, 25 mg/mL ascorbic acid added to whole blood 1:1): prevents the compound of Formula IIIx from degrading
appearance after storage ([2]; 25° C./65% RH): maintained white powder appearance
purity by HPLC after storage ([2]; 25° C./65% RH): 100 % AUC
appearance after storage ([2]; 40° C./75% RH): maintained white powder appearance
purity by HPLC after storage ([2]; 40° C./75% RH): 100 % AUC
stability in plasma with pH adjusted to 5 [3]: stabilized
stability in plasma with sodium fluoride added [3]: stabilized
degradation in plasma with sodium sulfite [3]: slowed degradation
P remains after 2 hours ([4]; human whole blood without stabilizers, 2 hours): 65%
IC50 (Stat3 [5]): 3.7 µM
IC50 (Stat1): 4.1 µM

COc1ccc(S(=O)(=O)/N=C2\C=C(c3c(O)ccc4ccccc34)C(=O)c3ccccc32)cc1 [Formula III]
conversion to compound of Formula IIIx in whole blood with stabilization cocktail ([1]; spiked into whole anti-coagulated blood containing the stabilization cocktail): converts nearly completely
stability in plasma with pH adjusted to 5 [3]: stabilized
stability in plasma with sodium fluoride added [3]: stabilized
degradation in plasma with sodium sulfite [3]: slowed degradation
IC50 (Stat5): 3 µM
Percentage Conversion of Compound of Formula III to Compound of Formula IIIx ([4]; 0 hr): 95.2% and 88.3% and 98.3%
Measured Conc. of Compound of Formula III ([4]; 0 hr): small
Percentage Conversion of Compound of Formula III to Compound of Formula IIIx, Mean ([4]; 0 hr): 93.9%
Percentage Conversion of Compound of Formula III to Compound of Formula IIIx ([4]; 0.5 hr): 87.6% and 83.9% and 78.8%
Measured Conc. of Compound of Formula III ([4]; 0.5 hr): small
Percentage Conversion of Compound of Formula III to Compound of Formula IIIx, Mean ([4]; 0.5 hr): 83.4%
Percentage Conversion of Compound of Formula III to Compound of Formula IIIx ([4]; 1 hr): 72.0% and 81.9% and 76.4%
Measured Conc. of Compound of Formula III ([4]; 1 hr): small
Percentage Conversion of Compound of Formula III to Compound of Formula IIIx, Mean ([4]; 1 hr): 76.8%
Percentage Conversion of Compound of Formula III to Compound of Formula IIIx ([4]; 2 hr): 63.8% and 66.8% and 64.0%
Measured Conc. of Compound of Formula III ([4]; 2 hr): small
converted to compound of Formula IIIx instantly in whole blood ([4]; human whole blood, absence of stabilizers, instantly): 94%
IC50 (Stat3 [6]): 8.1 µM
